Structures can show the parent of a compound that is named as a salt.
Assays:
[1] = target: T1, DA-uptake (reuptake of dopamine in synaptosomes) (Rattus norvegicus, UniProt P23977); assay: Inhibition of dopamine (DA) reuptake in synaptosomes; type: biochemical
T1 construct: In synaptosomes as described in WO 97/16451; from tissue
Protocol: (§1) A number of compounds were tested for their ability to inhibit the reuptake of the monoamine neurotransmitters dopamine (DA) noradrenaline(NA) and serotonin (5-HT) In synaptosomes as described in WO 97/16451.
(§2) The test values are given as IC50 (the concentration (μM) of the test substance which inhibits the specific binding of ^3H-DA, ^3H-NA, or ^3H-5-HT by 50%).

[2] = target: T2, NA-uptake (reuptake of noradrenaline in synaptosomes) (Rattus norvegicus, UniProt Q9WTR4); assay: Inhibition of noradrenaline (NA) reuptake in synaptosomes; type: biochemical
T2 construct: In synaptosomes as described in WO 97/16451; from tissue
T2 sequence (Q9WTR4 1-597): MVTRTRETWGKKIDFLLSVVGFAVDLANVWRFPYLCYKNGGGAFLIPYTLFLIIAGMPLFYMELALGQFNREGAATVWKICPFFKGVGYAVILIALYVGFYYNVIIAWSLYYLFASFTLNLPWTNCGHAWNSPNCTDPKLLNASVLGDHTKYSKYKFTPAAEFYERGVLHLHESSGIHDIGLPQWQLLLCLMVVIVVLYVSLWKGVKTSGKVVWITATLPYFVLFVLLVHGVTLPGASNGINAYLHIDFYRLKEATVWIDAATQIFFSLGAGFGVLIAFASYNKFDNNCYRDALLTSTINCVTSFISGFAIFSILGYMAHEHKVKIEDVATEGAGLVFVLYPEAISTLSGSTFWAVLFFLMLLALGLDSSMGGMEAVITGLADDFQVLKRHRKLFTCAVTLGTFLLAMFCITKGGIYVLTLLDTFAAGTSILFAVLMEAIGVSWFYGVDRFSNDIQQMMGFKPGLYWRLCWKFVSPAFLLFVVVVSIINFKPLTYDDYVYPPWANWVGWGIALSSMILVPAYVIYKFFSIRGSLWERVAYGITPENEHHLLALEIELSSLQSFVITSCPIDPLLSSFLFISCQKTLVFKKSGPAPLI
Protocol: as §1, §2

[3] = target: T3, 5-HT-uptake (reuptake of serotonin in synaptosomes) (Rattus norvegicus, UniProt P31652); assay: Inhibition of serotonin (5-HT) reuptake in synaptosomes; type: biochemical
T3 construct: In synaptosomes as described in WO 97/16451; from tissue
T3 sequence (P31652 whole entry): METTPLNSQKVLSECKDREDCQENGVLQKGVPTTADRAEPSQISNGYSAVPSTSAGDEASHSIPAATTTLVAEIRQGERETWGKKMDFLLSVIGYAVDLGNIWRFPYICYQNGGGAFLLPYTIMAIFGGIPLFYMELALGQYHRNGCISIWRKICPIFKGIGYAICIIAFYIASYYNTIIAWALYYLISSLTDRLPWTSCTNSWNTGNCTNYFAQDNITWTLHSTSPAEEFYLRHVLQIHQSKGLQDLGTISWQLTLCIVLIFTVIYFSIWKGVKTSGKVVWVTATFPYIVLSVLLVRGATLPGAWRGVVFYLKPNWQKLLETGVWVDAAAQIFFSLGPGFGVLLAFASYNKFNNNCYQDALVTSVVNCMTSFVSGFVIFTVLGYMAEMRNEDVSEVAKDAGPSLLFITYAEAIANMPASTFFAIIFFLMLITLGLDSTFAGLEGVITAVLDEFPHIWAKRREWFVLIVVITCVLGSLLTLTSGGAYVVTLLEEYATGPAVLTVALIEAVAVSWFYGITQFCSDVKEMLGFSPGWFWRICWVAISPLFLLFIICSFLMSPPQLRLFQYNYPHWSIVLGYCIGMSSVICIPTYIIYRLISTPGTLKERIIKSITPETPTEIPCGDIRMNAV
Protocol: as §1, §2

T1 sequence (P23977 whole entry): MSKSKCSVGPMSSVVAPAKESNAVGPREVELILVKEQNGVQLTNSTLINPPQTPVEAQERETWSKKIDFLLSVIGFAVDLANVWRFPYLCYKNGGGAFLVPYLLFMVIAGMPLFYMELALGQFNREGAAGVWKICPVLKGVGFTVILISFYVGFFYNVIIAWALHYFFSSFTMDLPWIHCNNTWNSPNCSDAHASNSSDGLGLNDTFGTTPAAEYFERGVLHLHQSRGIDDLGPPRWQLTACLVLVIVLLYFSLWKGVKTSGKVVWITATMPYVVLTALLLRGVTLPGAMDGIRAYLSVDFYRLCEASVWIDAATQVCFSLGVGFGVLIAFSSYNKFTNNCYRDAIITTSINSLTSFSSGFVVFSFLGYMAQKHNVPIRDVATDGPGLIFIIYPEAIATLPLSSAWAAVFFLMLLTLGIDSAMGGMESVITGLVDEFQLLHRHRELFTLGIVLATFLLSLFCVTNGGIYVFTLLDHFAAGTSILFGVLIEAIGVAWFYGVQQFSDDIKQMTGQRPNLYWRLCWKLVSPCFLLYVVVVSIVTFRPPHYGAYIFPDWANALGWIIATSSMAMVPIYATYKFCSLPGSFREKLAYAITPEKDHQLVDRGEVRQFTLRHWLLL

Compound	melting point	IC50 [1]	IC50 [2]	IC50 [3]
Clc1cccc(OCC2C3CCC(CC2c2cccs2)N3)c1Cl (as salt: fumaric acid salt) [1st compound of method E, (2R,3S)-2-(2,3-Dichlorophenoxymethyl)-8-H-3-(2-thienyl)-8-aza-bicyclo[3.2.1]octane fumaric acid salt]	201.2 °C	–	–	–
c1csc(C2CC3CCC(N3)C2COc2cccc3ccccc23)c1 (as salt: fumaric acid salt) [2nd compound of method E, (2R,3S)-2-(1-Naphthyloxymethyl)-8-H-3-(2-thienyl)-8-aza-bicyclo[3.2.1]octane fumaric acid salt]	199.1 °C	–	–	–
CN1C2CCC1[C@H](COc1cccc(Cl)c1Cl)[C@@H](c1cccs1)C2 (stereo partly drawn) [1st compound of method D, (2R,3S)-2-(2,3-Dichlorophenoxymethyl)-8-methyl-3-(2-thienyl)-8-aza-bicyclo[3.2.1]octane fumaric acid salt]	–	300 nM	1.9 nM	0.52 nM
Clc1cccc(OCC2C3CCC(CC2c2cccs2)N3)c1Cl [1st compound of method E, (2R,3S)-2-(2,3-Dichlorophenoxymethyl)-8-H-3-(2-thienyl)-8-aza-bicyclo[3.2.1]octane fumaric acid salt]	–	74 nM	1.8 nM	0.74 nM
CN1C2CCC1[C@H](COc1cccc3ccccc13)[C@@H](c1cccs1)C2.O=C(O)/C=C/C(=O)O (stereo partly drawn) [2nd compound of method D, (2R,3S)-2-(1-Naphthyloxymethyl)-8-methyl-3-(2-thienyl)-8-aza-bicyclo[3.2.1]octane fumaric acid salt]	203.1 °C	360 nM	3.6 nM	0.42 nM
c1csc(C2CC3CCC(N3)C2COc2cccc3ccccc23)c1 [2nd compound of method E, (2R,3S)-2-(1-Naphthyloxymethyl)-8-H-3-(2-thienyl)-8-aza-bicyclo[3.2.1]octane fumaric acid salt]	–	190 nM	1.6 nM	0.54 nM
CN1C2CCC1[C@H](COc1cccc(Cl)c1Cl)[C@@H](c1ccco1)C2.O=C(O)/C=C/C(=O)O (stereo partly drawn) [5th compound of method D, (2R,3S)-2-(2,3-Dichlorophenoxymethyl)-8-methyl-3-(2-furanyl)-8-aza-bicyclo[3.2.1]octane fumaric acid salt]	156.4 to 205.9 °C	310 nM	0.9 nM	0.36 nM
CN1C2CCC1[C@H](COc1cccc3ccccc13)[C@@H](c1ccco1)C2 (stereo partly drawn) [6th compound of method D, (2R,3S)-2-(1-Naphthyloxymethyl)-8-methyl-3-(2-furanyl)-8-aza-bicyclo[3.2.1]octane fumaric acid salt]	–	920 nM	3 nM	0.53 nM

From patent US7247643B2, “8-aza-bicyclo (3.2.1) octane derivatives and their use as monoamine neurotransmitter re-uptake inhibitors” (NeuroSearch A/S, priority 2003, dated 2007)
